Results as given in patent US5534554A, “Sucrose ester-C20 to C28 alcohol formulations” (priority 1994, dated 1996).
Entries after “also recorded” stand apart in the source; their conditions may differ.

How the values were obtained:
poliovirus = assay type: cell-based; settings: nonenveloped virus
wild-type HSV-2 = test: Plaque inhibition, wild-type HSV-2 in Vero cells; assay type: cell-based; settings: FIG. 7, Panel A
HSV [1] = test: Inhibition of HSV-induced plaques in Vero versus MDBK cells; assay type: cell-based
HSV-1 = test: Inhibition of HSV-1-induced cutaneous lesions (vesicles) in hairless guinea pigs; assay type: in vivo; settings: continued treatment
From the text: Burroughs Wellcome Co., Research Triangle Park, N.C.; the current agent of choice for treatment of HSV infections which inhibits activity of viral DNA polymerase) in inhibiting HSV-1-induced cutaneous lesions in hairless guinea pigs. […] To confirm in an experimental animal model the efficacy of n-docosanol cream on HSV-induced lesions, and to compare its activity to that of […], hairless guinea pigs were inoculated with 1×10^6 PFU of HSV-1, and then treated with either n-docosanol-containing or control cream, or […] ointment. The n-docosanol creams were constructed as described. The control cream was constructed in a similar manner except stearic acid was substituted for n-docosanol. Treatment was started either 2 or 48 hours after virus inoculation. The sites were evaluated for vesicle formation, defined as a pus-filled blister, at the indicated time points.

Vero cells [2] = test: Metabolism of n-[14C]-docosanol in Vero cells (TLC); settings: sodium azide and 2-deoxyglucose
HIV-1 = HIV-1 replication in PHA/IL-2-stimulated human peripheral blood mononuclear cells (p24 ELISA); assay type: cell-based
Description: Human peripheral blood mononuclear cells were cultured in medium containing 1 μg/ml PHA plus 5 units/ml IL-2 alone or also containing 100 μg/ml PFA, […] F-68 control vehicle contained in the high dose of n-docosanol/Pluronic. After overnight incubation, the cultures were inoculated with HIV-1 at a multiplicity of infection of 1 virion/cell. After 24 hours incubation at 37° C., the cultures were washed and inoculated with fresh medium containing PHA and IL-2, but lacking inhibitor. Replication of HIV-1 was determined 4 days later by quantitation of viral antigens by a p24-specific ELISA for HIV-1.
Our initial studies on HIV were conducted in collaboration with a U.S. National Institutes of Health laboratory and one of several experiments of this type is summarized in FIG. 13. Normal human peripheral blood mononuclear cells were activated with […] PHA plus 5 units/ml of IL-2 in medium alone or in the presence of the n-docosanol, Pluronic F-68 control vehicle, or phosphonoformic acid (PFA). The next day, the cultures were inoculated with HIV-1 and examined 4 days later for evidence of viral replication by detection of the p24 viral antigen. […] The dose response of HIV-1 to n-docosanol indicates an ED 50 of about 6-9 mM.

Vero cells [3] = test: Cellular uptake and distribution of radiolabeled n-docosanol in Vero cells
[4] = system: Herpes simplex virus type 1; test: Inhibition of HSV type 1 infectivity in simian and human cell lines; assay type: cell-based, HSV-1
murine retroviruses = test: Replication of murine retroviruses in vitro and in vivo
From the text: n-Docosanol has anti-retroviral activity both in vitro and in vivo. […] Notwithstanding the implications for treatment of AIDS, availability of a treatment regimen for diseases caused by retroviruses like feline leukemia virus, bovine leukemia virus, as well HTLV-1 and -2 would have substantial benefits in humanitarian terms.

Vero or MDBK cells = test: Uptake and metabolism in Vero versus MDBK cells; assay type: in vitro ADME, bovine (MDBK)
Description: FIG. 11 depicts data showing that n-[^14 C]-docosanol is metabolized more by Vero cells than by MDBK cells. Vero or MDBK cells were plated as described in the specification. n-[^14 C]-Docosanol was added to 6 mM (0.24 mM Tetronic 908) and the cultures were incubated 72 hours at 37° C./CO2. Cells were extracted and analyzed on TLC with hexane:diethyl ether:acetic acid (20:30:1; v:v:v) as the developing solvent. With this solvent system the polar phosphatides remain at the origin. The position of migration of n-docosanol is indicated. Duplicate plates were treated with an identical suspension lacking the radioactive label, and the numbers of cells in these duplicate plates were determined by counting cells excluding trypan blue with a hemocytometer.
When we compared total cellular uptake and relative metabolism, the results were strikingly clear. First, both the total amounts of n-docosanol uptake and the relative amounts of metabolic conversion were 3-4 times higher in Vero than in MDBK cells. […] Nonetheless, of the counts that are metabolized in two cells lines, the relative amounts in the major classes of phosphatides that are formed, phosphatidylcholine and phosphatidylethanolamine, are not different in the two cell lines.

HSV [5] = test: Inhibition of HSV replication, Tetronic versus Pluronic suspensions; assay type: cell-based
[6] = system: Respiratory Syncytial Virus; test: Antiviral activity against respiratory syncytial virus; assay type: cell-based; settings: Table 6, human viruses
HSV-2 = assay type: cell-based
[7] = system: acyclovir-resistant HSV-2; test: Plaque inhibition, acyclovir-resistant HSV-2 in Vero cells; assay type: cell-based; settings: FIG. 7, Panel B
HSV [8] = test: Viral migration to the nucleus (HSV antigens by ELISA, ICP-4 by immunofluorescence); assay type: cell-based
From the text: The collective implications of the results of the studies are that the compound appears to interfere with one or more of the common pathways of viral entry into the cell and migration to the nucleus of infected target cells.
Thus, the amounts of both HSV core and envelope protein antigens detectable by ELISA, as well as the numbers of infected cells expressing the intranuclear HSV-specific immediate-early protein, ICP-4, by immunofluorescence, are reduced by more than 80%. Finally, the replication of infectious virions as measured in secondary plaque assay cultures is markedly diminished by 99% or more in n-docosanol-treated cells.

With `CCCCCCCCCCCCCCCCCCCCCCO` [n-docosanol] the activity against poliovirus (poliovirus) was “no detectable activity”, the “inhibition of plaque formation” value (wild-type HSV-2) was “inhibit plaque formation by wild type HSV-2 equally” and the “effectiveness in inhibiting HSV-induced plaques, Vero relative to MDBK cells” value (HSV [1]) was 3-4 fold. For the same compound, the “vesicle number at the 72 hour time point” value (HSV-1) was “many fewer vesicles”, the “reduction of metabolic conversion into polar metabolites by energy poisons” value (Vero cells [2]) was 80% and the “activity at the highest dose compared with PFA” value (HIV-1; FIG. 13) was “comparable to that observed with the very potent antiviral compound, phosphonoformic acid (PFA)”. The EC50 (HIV-1; Human immunodeficiency virus 1, PBMC, dose response of HIV-1, read-out: ED 50 (the source's name)) was 6 to 9 mM, the “susceptibility to antiviral activity: HIV-1” value (HIV-1; Table 6, human viruses) was “susceptible” and the “inhibition of HIV-1 replication” value (HIV-1; n-docosanol/Pluronic, FIG. 13) was “dose-related inhibitory activity”. For the same compound, the “antiviral HIV activity in Tetronic” value (HIV-1; suspended in Tetronic) was “even higher levels of antiviral HIV activity”, the “radioactivity in the soluble cytoplasmic fraction” value (Vero cells [3]; after 12 hours of exposure) was “the balance of radioactivity” and the “actual bioactive dose relative to the dose shown in FIGS. 7 and 9” value (Vero cells [3]; cultures, from uptake studies) was 1/1000. The “reduction of uptake of n-docosanol by energy poisons” value (Vero cells [3]; sodium azide and 2-deoxyglucose, Vero cells) was 90%, the “susceptibility to antiviral activity: Herpes Simplex - 1” value ([4]; Table 6) was “susceptible” and the “inhibitory activity in vitro” value ([4]; suspension in Pluronic F-68) was “excellent inhibitory activity”. For the same compound, the “inhibition of murine retrovirus replication” value (murine retroviruses) was “does inhibit replication of murine retroviruses in vitro and in vivo”, the “relative metabolic conversion, Vero relative to MDBK cells” value (Vero or MDBK cells) was 3-4 times and the “total uptake, Vero relative to MDBK cells” value (Vero or MDBK cells) was 3-4 times. The “amount of phosphatide metabolite, Vero relative to MDBK cells” value (Vero or MDBK cells; after 72 hours, FIG. 11) was roughly 4 fold, the “relative amounts of phosphatidylcholine and phosphatidylethanolamine in the two cell lines” value (Vero or MDBK cells; of counts metabolized) was “not different” and the “ED50 in Pluronic relative to Tetronic” value (HSV [5]; suspended in Pluronic F-68) was “approximately 3 times”. The EC50 (HSV [5]; suspended in Tetronic 908, read-out: ED50 for inhibition of HSV replication) was 5 to 10 mM, the “susceptibility to antiviral activity: Respiratory Syncytial Virus” value [6] was “susceptible” and the “internalization of HSV complete by 20 minutes” value (HSV-2; after shift to 37° C.) was “less than 40%”. The “time to completion of internalization” value (HSV-2; after shift to 37° C.) was “more than 1 hour”, the “persistence of bound HSV virions on the cell surface” value (HSV-2; in the presence of n-docosanol) was “remain on the cell surface for a prolonged time period” and the “inhibition of acyclovir-resistant HSV-2 mutant” value [7] was “very clearly susceptible”. For the same compound, the “viral migration to the cell nucleus” value (HSV [8]) was “significantly inhibited; also recorded: substantially blocked”, the “reduction of HSV core protein antigen” value (HSV [8]; ELISA) was “more than 80%” and the “reduction of HSV envelope protein antigen” value (HSV [8]; ELISA) was “more than 80%”. The “reduction of number of infected cells expressing ICP-4” value (HSV [8]; immunofluorescence) was “more than 80%”.
